Data published in patent US12030878B2 (BRISTOL-MYERS SQUIBB COMPANY, priority 2017, dated 2024).

Experiments:
Assay type in all cases: cell-based
human TLR7 = molecular target: T1, human TLR7 (Homo sapiens, UniProt Q9NYK1); test: TLR7 inhibition reporter assay (HEK-Blue SEAP); conditions: HEK-Blue cells overexpressing human TLR7, stimulated with gardiquimod 7.5 μM, 22 hour incubation
T1 construct: host or cells: HEK-Blue cells
T1 sequence (Q9NYK1 27-1049): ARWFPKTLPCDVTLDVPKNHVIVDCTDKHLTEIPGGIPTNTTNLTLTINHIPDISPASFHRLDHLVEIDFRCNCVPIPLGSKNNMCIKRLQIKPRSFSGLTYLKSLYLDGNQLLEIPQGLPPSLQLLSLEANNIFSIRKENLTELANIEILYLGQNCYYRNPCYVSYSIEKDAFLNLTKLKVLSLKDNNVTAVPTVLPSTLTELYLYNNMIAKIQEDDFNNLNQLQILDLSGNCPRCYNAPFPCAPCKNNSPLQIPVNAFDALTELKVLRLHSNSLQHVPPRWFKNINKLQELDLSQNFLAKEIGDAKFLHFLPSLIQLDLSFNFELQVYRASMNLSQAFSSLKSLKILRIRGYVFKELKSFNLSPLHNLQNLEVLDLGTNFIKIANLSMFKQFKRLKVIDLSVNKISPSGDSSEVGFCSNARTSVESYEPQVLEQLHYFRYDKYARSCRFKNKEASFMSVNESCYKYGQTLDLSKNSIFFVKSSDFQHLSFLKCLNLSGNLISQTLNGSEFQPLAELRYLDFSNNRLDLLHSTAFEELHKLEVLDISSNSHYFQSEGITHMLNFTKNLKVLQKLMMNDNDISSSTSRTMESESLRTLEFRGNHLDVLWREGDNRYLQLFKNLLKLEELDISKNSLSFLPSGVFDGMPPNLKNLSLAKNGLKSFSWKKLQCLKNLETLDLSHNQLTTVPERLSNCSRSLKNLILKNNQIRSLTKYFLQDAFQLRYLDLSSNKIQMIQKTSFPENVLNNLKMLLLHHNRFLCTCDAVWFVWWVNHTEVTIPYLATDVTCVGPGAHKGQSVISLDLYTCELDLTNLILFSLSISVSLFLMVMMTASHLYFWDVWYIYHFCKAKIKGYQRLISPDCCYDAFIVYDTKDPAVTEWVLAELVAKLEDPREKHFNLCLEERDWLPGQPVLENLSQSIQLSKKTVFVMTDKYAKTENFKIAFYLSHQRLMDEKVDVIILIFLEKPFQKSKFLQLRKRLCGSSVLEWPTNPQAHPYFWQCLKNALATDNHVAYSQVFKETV
Procedure: (§1) TLR7/8/9 Inhibition Reporter Assays
(§2) HEK-Blue™-cells (Invivogen) overexpressing human TLR7, TLR8 or TLR9 receptors were used for screening inhibitors of these receptors using an inducible SEAP (secreted embryonic alkaline phosphatase) reporter gene under the control of the IFN-β minimal promoter fused to five NF-κB and AP-1-binding sites. Briefly, cells are seeded into Greiner 384 well plates (15000 cells per well for TLR7, 20.000 for TLR8 and 25,000 for TLR9) and then treated with test compounds in DMSO to yield a final dose response concentration range of 0.05 nM-50 μM. After a 30 minute compound pre-treatment at room temperature, the cells are then stimulated with a TLR7 ligand (gardiquimod at a final concentration of 7.5 μM), TLR8 ligand (R848 at a final concentration of 15.9 μM) or TLR9 ligand (ODN2006 at a final concentration of 5 nM) to activate NF-κB and AP-1 which induce the production of SEAP. After a 22 hour incubation at 37° C., 5% CO2, SEAP levels are determined with the addition of HEK-Blue™ Detection reagent (Invivogen), a cell culture medium that allows for detection of SEAP, according to manufacturer's specifications. The percent inhibition is determined as the % reduction in the HEK-Blue signal present in wells treated with agonist plus DMSO alone compared to wells treated with a known inhibitor.

human TLR8 = molecular target: T2, human TLR8 (Homo sapiens, UniProt Q9NR97); test: TLR8 inhibition reporter assay (HEK-Blue SEAP); conditions: HEK-Blue cells overexpressing human TLR8, stimulated with R848 15.9 μM, 22 hour incubation
T2 construct: host or cells: HEK-Blue cells
T2 sequence (Q9NR97 27-1041): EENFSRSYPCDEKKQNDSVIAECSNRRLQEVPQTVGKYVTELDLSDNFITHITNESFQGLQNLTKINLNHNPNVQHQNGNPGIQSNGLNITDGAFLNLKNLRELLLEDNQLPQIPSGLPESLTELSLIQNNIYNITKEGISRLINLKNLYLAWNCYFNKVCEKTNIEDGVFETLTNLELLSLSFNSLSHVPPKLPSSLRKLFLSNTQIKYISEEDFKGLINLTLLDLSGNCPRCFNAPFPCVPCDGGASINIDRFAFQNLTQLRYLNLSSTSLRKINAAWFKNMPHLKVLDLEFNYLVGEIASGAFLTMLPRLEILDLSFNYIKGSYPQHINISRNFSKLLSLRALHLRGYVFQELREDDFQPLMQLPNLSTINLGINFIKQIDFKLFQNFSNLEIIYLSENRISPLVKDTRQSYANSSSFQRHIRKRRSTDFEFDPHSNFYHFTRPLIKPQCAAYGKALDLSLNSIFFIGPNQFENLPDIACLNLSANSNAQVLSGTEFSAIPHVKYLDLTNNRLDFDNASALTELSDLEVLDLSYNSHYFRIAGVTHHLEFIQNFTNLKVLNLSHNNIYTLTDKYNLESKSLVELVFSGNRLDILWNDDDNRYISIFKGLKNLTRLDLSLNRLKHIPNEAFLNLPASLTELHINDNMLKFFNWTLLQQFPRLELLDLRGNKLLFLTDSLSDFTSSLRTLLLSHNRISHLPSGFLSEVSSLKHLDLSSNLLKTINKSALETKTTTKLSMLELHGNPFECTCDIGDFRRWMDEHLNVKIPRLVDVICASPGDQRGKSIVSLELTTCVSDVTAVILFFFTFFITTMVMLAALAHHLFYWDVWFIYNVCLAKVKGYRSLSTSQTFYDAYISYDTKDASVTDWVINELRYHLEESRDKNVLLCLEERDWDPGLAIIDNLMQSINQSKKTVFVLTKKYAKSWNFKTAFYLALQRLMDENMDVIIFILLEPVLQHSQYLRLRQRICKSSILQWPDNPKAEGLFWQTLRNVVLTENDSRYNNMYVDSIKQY
Procedure: as §1, §2

human TLR9 = molecular target: T3, human TLR9 (Homo sapiens, UniProt Q9NR96); test: TLR9 inhibition reporter assay (HEK-Blue SEAP); conditions: HEK-Blue cells overexpressing human TLR9, stimulated with ODN2006 5 nM, 22 hour incubation
T3 construct: host or cells: HEK-Blue cells
T3 sequence (Q9NR96 26-1032): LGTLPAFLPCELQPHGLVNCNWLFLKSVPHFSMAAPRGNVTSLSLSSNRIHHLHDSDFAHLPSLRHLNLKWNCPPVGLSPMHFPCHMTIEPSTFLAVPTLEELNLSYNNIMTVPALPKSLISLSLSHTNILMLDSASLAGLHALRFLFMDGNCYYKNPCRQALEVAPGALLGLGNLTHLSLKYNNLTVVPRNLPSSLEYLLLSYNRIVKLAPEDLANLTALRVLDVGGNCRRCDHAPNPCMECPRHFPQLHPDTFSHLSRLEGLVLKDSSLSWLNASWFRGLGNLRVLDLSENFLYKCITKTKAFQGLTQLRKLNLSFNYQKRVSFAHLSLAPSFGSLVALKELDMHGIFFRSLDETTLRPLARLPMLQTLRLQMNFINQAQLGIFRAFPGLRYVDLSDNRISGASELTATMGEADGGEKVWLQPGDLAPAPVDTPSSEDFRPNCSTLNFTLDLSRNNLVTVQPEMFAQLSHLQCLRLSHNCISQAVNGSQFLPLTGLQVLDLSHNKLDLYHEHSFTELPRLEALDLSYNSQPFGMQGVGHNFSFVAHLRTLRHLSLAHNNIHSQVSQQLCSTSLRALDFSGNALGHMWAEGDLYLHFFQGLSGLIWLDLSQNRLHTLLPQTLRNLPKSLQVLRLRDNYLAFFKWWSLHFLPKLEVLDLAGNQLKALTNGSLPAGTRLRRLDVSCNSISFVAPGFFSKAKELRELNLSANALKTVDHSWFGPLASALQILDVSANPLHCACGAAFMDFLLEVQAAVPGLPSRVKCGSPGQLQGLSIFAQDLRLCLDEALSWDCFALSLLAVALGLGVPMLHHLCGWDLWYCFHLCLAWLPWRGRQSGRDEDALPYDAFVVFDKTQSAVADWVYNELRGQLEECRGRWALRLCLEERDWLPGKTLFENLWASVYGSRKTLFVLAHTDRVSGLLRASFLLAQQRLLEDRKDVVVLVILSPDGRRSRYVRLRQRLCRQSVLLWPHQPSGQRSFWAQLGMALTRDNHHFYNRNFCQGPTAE
Procedure: as §1, §2

COc1ccc(-c2[nH]c3ccc(OCC(=O)N[C@@H]4CCCC[C@H]4N)cc3c2C(C)C)cc1OC [Example 130, N-((1R,2R)-2-aminocyclohexyl)-2-((2-(3,4-dimethoxyphenyl)-3-isopropyl-1H-indol-5-yl)oxy)acetamide]
IC50 (human TLR7): 398 nM
IC50 (human TLR8): 18.7 nM
IC50 (human TLR9): 2060 nM

Cc1cc(-c2[nH]c3ccc(OCC4CN(CCS(C)(=O)=O)C4)cc3c2C(C)C)cn2ncnc12 [Example 92, 6-(3-isopropyl-5-((1-(2-(methylsulfonyl)ethyl)azetidin-3-yl)methoxy)-1H-indol-2-yl)-8-methyl-[1,2,4]triazolo[1,5-a]pyridine]
IC50 (human TLR7): 1.2 nM
IC50 (human TLR8): 3.8 nM
IC50 (human TLR9): 6040 nM

Cc1cc(-c2[nH]c3ccc(OCC4CCN(C)CC4)cc3c2C(C)C)cc(C)n1 [Example 33, 2-(2,6-dimethylpyridin-4-yl)-3-isopropyl-5-((1-methylpiperidin-4-yl)methoxy)-1H-indole]
IC50 (human TLR7): 2.8 nM
IC50 (human TLR8): 2.6 nM
IC50 (human TLR9): 502 nM

Cc1cc(-c2[nH]c3ccc(O[C@H]4CCCNC4)cc3c2C(C)C)cn(C)c1=O [Example 8, (S)-5-(3-isopropyl-5-(piperidin-3-yloxy)-1H-indol-2-yl)-1,3-dimethylpyridin-2(1H)-one]
IC50 (human TLR7): 6.6 nM
IC50 (human TLR8): 13.9 nM
IC50 (human TLR9): 3520 nM

CCCN1CCC(Oc2ccc3[nH]c(-c4cc(OC)c5ncnn5c4)c(C(C)C)c3c2)CC1 [Example 67, 6-(3-isopropyl-5-((1-propylpiperidin-4-yl)oxy)-1H-indol-2-yl)-8-methoxy-[1,2,4]triazolo[1,5-a]pyridine]
IC50 (human TLR7): 0.2 nM
IC50 (human TLR8): 0.2 nM
IC50 (human TLR9): 1060 nM

Cc1cc(-c2[nH]c3ccc(OCC4CCN(C(=O)CN(C)C)CC4)cc3c2C(C)C)cn2ncnc12 [Example 102, 2-(dimethylamino)-1-(4-(((3-isopropyl-2-(8-methyl-[1,2,4]triazolo[1,5-a]pyridin-6-yl)-1H-indol-5-yl)oxy)methyl)piperidin-1-yl)ethan-1-one]
IC50 (human TLR7): 0.3 nM
IC50 (human TLR8): 5 nM
IC50 (human TLR9): 2570 nM

COc1ccc(-c2[nH]c3ccc(OCC(=O)NC4CCCC(N)C4)cc3c2C(C)C)cc1OC (stereo not drawn) [Example 128, N-(3-aminocyclohexyl)-2-((2-(3,4-dimethoxyphenyl)-3-isopropyl-1H-indol-5-yl)oxy) acetamide]
IC50 (human TLR7): 62.1 nM
IC50 (human TLR8): 54.2 nM
IC50 (human TLR9): 576 nM

Cc1c(-c2[nH]c3ccc(OCC4CCN(C5COC5)CC4)cc3c2C(C)C)cn2cnnc2c1C [Example 52, 6-(3-isopropyl-5-((1-(oxetan-3-yl)piperidin-4-yl)methoxy)-1H-indol-2-yl)-7,8-dimethyl-[1,2,4]triazolo[4,3-a]pyridine]
IC50 (human TLR7): 6.1 nM
IC50 (human TLR8): 5.8 nM
IC50 (human TLR9): 7810 nM

Cc1cc(-c2[nH]c3ccc(OC4CCN(C(=O)CN(C)C)CC4)cc3c2C(C)C)ccn1 [Example 196, 2-(dimethylamino)-1-(4-((3-isopropyl-2-(2-methylpyridin-4-yl)-1H-indol-5-yl)oxy)piperidin-1-yl)ethan-1-one]
IC50 (human TLR7): 9.9 nM
IC50 (human TLR8): 11.8 nM
IC50 (human TLR9): 1420 nM

Cc1cc(-c2[nH]c3ccc(OCC(=O)N4CCCC5(CNC5)C4)cc3c2C(C)C)ccn1 [Example 140, 2-((3-isopropyl-2-(2-methylpyridin-4-yl)-1H-indol-5-yl)oxy)-1-(2,6-diazaspiro[3.5]nonan-6-yl)ethan-1-one]
IC50 (human TLR7): 629 nM
IC50 (human TLR8): 216 nM
IC50 (human TLR9): 886 nM

Cc1c(-c2[nH]c3ccc(OC4CCN(C(=O)CN(C)C)CC4)cc3c2C(C)C)cn(C)c(=O)c1C [Example 104, 5-(5-((1-(dimethylglycyl)piperidin-4-yl)oxy)-3-isopropyl-1H-indol-2-yl)-1,3,4-trimethylpyridin-2(1H)-one]
IC50 (human TLR7): 7.8 nM
IC50 (human TLR8): 16.2 nM
IC50 (human TLR9): 5110 nM

Cc1cc(-c2[nH]c3ccc(OC4CCNCC4)cc3c2C(C)C)cn(C)c1=O [Example 11, 5-(3-isopropyl-5-(piperidin-4-yloxy)-1H-indol-2-yl)-1,3-dimethylpyridin-2(1H)-one]
IC50 (human TLR7): 2.8 nM
IC50 (human TLR8): 2.1 nM
IC50 (human TLR9): 1920 nM

Cc1cc(-c2[nH]c3ccc(OCC(=O)N4CCC(CN)CC4)cc3c2C(C)C)ccn1 [Example 147, 1-(4-(aminomethyl)piperidin-1-yl)-2-((3-isopropyl-2-(2-methylpyridin-4-yl)-1H-indol-5-yl)oxy)ethan-1-one]
IC50 (human TLR7): 1200 nM
IC50 (human TLR8): 474 nM
IC50 (human TLR9): 1540 nM
